Laboratory results taken from PubChem BioAssay AID248 (DTP/NCI, 2004).
Several values for one entry are separate records, joined by “and”; a condition that tells them apart may be missing. Equal entries are not always repeated. Toxic doses and inconclusive results are not listed. Cut-off read from the data, not from the text of the source: active = T/C of 150% or more; inactive = T/C below 125%.

System: L1210 leukemia ip in BDF1 mice, survival T/C
Test: NCI In Vivo Anticancer Drug Screen. Data for tumor model L1210 Leukemia (intraperitoneal) in B6D2F1 (BDF1) mice
Conditions: endpoint: mean survival time, higher = longer survival
How it was run: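 Transplanted-tumor mice were given test agent; controls received vehicle only. Survival readings from the two groups were divided (treated over control).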

[1] = dose: 100.0 mg/kg/injection, schedule: Q04DX003 (ip), vehicle: Klucel (hydroxypropylcellulose) (HPC)
[2] = dose: 100.0 mg/kg/injection, schedule: Q01DX009 (ip), vehicle: saline with Tween-80
[3] = dose: 50.0 mg/kg/injection, schedule: Q01DX001 (ip), vehicle: saline
[4] = dose: 100.0 mg/kg/injection, schedule: Q01DX001 (ip), vehicle: saline
[5] = dose: 200.0 mg/kg/injection, schedule: Q01DX001 (ip), vehicle: saline
[6] = dose: 12.5 mg/kg/injection, schedule: Q04DX002 (ip), vehicle: Klucel (hydroxypropylcellulose) (HPC)
[7] = dose: 25.0 mg/kg/injection, schedule: Q04DX002 (ip), vehicle: Klucel (hydroxypropylcellulose) (HPC)
[8] = dose: 200.0 mg/kg/injection, schedule: Q01DX009 (ip), vehicle: saline with Tween-80
[9] = dose: 400.0 mg/kg/injection, schedule: Q01DX009 (ip), vehicle: saline with Tween-80

Measured: T/C

Cc1ccc(NC(=O)Nc2ccc(C3=NCCN3)cc2)cc1NC(=O)Nc1ccc(C2=NCCN2)cc1
inactive: dose: 2.25 mg/kg/injection, schedule: Q01DX Z (ip), vehicle: water 105 % of control | dose: 4.5 mg/kg/injection, schedule: Q01DX Z (ip), vehicle: water 102 % of control | dose: 9.0 mg/kg/injection, schedule: Q01DX Z (ip), vehicle: water 92 % of control | dose: 18.0 mg/kg/injection, schedule: Q01DX Z (ip), vehicle: water 100 % of control

C/C(=C\c1ccccc1)C(=O)c1ccc(-c2ccccc2)cc1
inactive: dose: 100.0 mg/kg/injection, schedule: Q01DX009 (ip), vehicle: Klucel (hydroxypropylcellulose) (HPC) 97 % of control | [1] 100 % of control | dose: 200.0 mg/kg/injection, schedule: Q01DX009 (ip), vehicle: Klucel (hydroxypropylcellulose) (HPC) 93 % of control | dose: 200.0 mg/kg/injection, schedule: Q04DX003 (ip), vehicle: Klucel (hydroxypropylcellulose) (HPC) 100 % of control | dose: 400.0 mg/kg/injection, schedule: Q01DX009 (ip), vehicle: Klucel (hydroxypropylcellulose) (HPC) 92 % of control | dose: 400.0 mg/kg/injection, schedule: Q04DX003 (ip), vehicle: Klucel (hydroxypropylcellulose) (HPC) 93 % of control

CCN(C(=O)N(CCCl)N=O)C1CCCCC1
inactive: dose: 75.0 mg/kg/injection, schedule: Q01DX001 (ip), vehicle: saline 97 % of control

C=C1c2ccccc2N(CC)C1(COc1ccc(Cl)cc1)OC(=O)c1cccc(Cl)c1 (stereo unspecified)
inactive: dose: 100.0 mg/kg/injection, schedule: Q04DX002 (ip), vehicle: Klucel (hydroxypropylcellulose) (HPC) 100 % of control | dose: 200.0 mg/kg/injection, schedule: Q04DX002 (ip), vehicle: Klucel (hydroxypropylcellulose) (HPC) 95 % of control | dose: 400.0 mg/kg/injection, schedule: Q04DX002 (ip), vehicle: Klucel (hydroxypropylcellulose) (HPC) 110 % of control

CCC/C(=N\Nc1ccc([N+](=O)[O-])cc1[N+](=O)[O-])c1ccccc1
inactive: dose: 100.0 mg/kg/injection, schedule: Q04DX003 (ip), vehicle: saline with Tween-80 91 % of control | dose: 400.0 mg/kg/injection, schedule: Q04DX003 (ip), vehicle: saline with Tween-80 86 % of control

CCOC(=O)NNC(=O)OCC
inactive: dose: 12.5 mg/kg/injection, schedule: Q01DX009 (ip), vehicle: saline with Tween-80 100 % of control | dose: 25.0 mg/kg/injection, schedule: Q01DX009 (ip), vehicle: saline with Tween-80 97 % of control | dose: 25.0 mg/kg/injection, schedule: Q04DX003 (ip), vehicle: Klucel (hydroxypropylcellulose) (HPC) 97 % of control | dose: 50.0 mg/kg/injection, schedule: Q01DX009 (ip), vehicle: saline with Tween-80 96 % of control and 86 % of control | dose: 50.0 mg/kg/injection, schedule: Q04DX003 (ip), vehicle: Klucel (hydroxypropylcellulose) (HPC) 98 % of control | dose: 75.0 mg/kg/injection, schedule: Q01DX001 (ip), vehicle: acetone 97 % of control | [2] 92 % of control | [1] 91 % of control | dose: 150.0 mg/kg/injection, schedule: Q01DX001 (ip), vehicle: acetone 108 % of control

C[N+]1=C(C(=O)c2ccc(O)cc2)c2ccc(O)cc2CC1
inactive: [3] 107 % of control | [4] 106 % of control | [5] 119 % of control

N#CC(C#N)=Cc1ccc([N+](=O)[O-])s1
inactive: [6] 96 % of control | [7] 100 % of control

NC(CSS(=O)(=O)O)=NC1CC2CCC1C2 (stereo unspecified)
inactive: dose: 6.25 mg/kg/injection, schedule: Q01DX001 (ip), vehicle: saline 97 % of control | dose: 6.25 mg/kg/injection, schedule: Q01DX009 (ip), vehicle: Klucel (hydroxypropylcellulose) (HPC) 98 % of control | dose: 6.25 mg/kg/injection, schedule: Q01DX009 (ip), vehicle: saline 95 % of control and 103 % of control | dose: 6.25 mg/kg/injection, schedule: Q04DX002 (ip), vehicle: saline 112 % of control and 117 % of control | dose: 12.5 mg/kg/injection, schedule: Q01DX001 (ip), vehicle: saline 95 % of control | dose: 12.5 mg/kg/injection, schedule: Q01DX009 (ip), vehicle: Klucel (hydroxypropylcellulose) (HPC) 95 % of control | dose: 12.5 mg/kg/injection, schedule: Q01DX009 (ip), vehicle: saline 100 % of control and 91 % of control | [6] 100 % of control | dose: 12.5 mg/kg/injection, schedule: Q04DX002 (ip), vehicle: saline 101 % of control and 87 % of control | dose: 25.0 mg/kg/injection, schedule: Q01DX001 (ip), vehicle: saline with Tween-80 112 % of control | dose: 25.0 mg/kg/injection, schedule: Q01DX001 (ip), vehicle: saline 92 % of control | dose: 25.0 mg/kg/injection, schedule: Q01DX009 (ip), vehicle: Klucel (hydroxypropylcellulose) (HPC) 104 % of control | dose: 25.0 mg/kg/injection, schedule: Q01DX009 (ip), vehicle: saline 94 % of control and 88 % of control | [7] 92 % of control | dose: 50.0 mg/kg/injection, schedule: Q04DX002 (ip), vehicle: saline 117 % of control

O=C(c1ccccc1)C(O)c1ccccc1 (stereo unspecified)
inactive: [2] 89 % of control | [8] 94 % of control | [9] 100 % of control

COC(=O)C(C)CC(C)(C)[N+](=O)[O-] (stereo unspecified)
inactive: [2] 97 % of control | [8] 103 % of control | [9] 97 % of control

CC(C)(C)S(=O)CCO (stereo unspecified)
inactive: dose: 100.0 mg/kg/injection, schedule: Q04DX002 (ip), vehicle: saline 109 % of control | dose: 200.0 mg/kg/injection, schedule: Q04DX002 (ip), vehicle: saline 103 % of control | dose: 400.0 mg/kg/injection, schedule: Q04DX002 (ip), vehicle: saline 103 % of control

O/N=C(\c1ccccc1)C1C(/C(=N/O)c2ccccc2)C1c1ccccc1 (stereo unspecified)
inactive: dose: 100.0 mg/kg/injection, schedule: Q04DX002 (ip), vehicle: saline with Tween-80 88 % of control | dose: 400.0 mg/kg/injection, schedule: Q04DX002 (ip), vehicle: saline with Tween-80 88 % of control

CCC1(CCC(C)C)C(=O)NC(=S)N(C)C1=O (stereo unspecified)
inactive: dose: 75.0 mg/kg/injection, schedule: Q01DX001 (ip), vehicle: carboxymethylcellulose (CMC) 89 % of control | dose: 75.0 mg/kg/injection, schedule: Q01DX001 (ip), vehicle: other 97 % of control | dose: 150.0 mg/kg/injection, schedule: Q01DX001 (ip), vehicle: carboxymethylcellulose (CMC) 89 % of control | dose: 150.0 mg/kg/injection, schedule: Q01DX001 (ip), vehicle: other 103 % of control | dose: 300.0 mg/kg/injection, schedule: Q01DX001 (ip), vehicle: carboxymethylcellulose (CMC) 91 % of control | dose: 300.0 mg/kg/injection, schedule: Q01DX001 (ip), vehicle: other 121 % of control

Brc1ccc(/C=N/Nc2nnc(N/N=C/c3ccc(Br)cc3)c3ccccc23)cc1
inactive: [3] 93 % of control | [4] 96 % of control | [5] 102 % of control | dose: 400.0 mg/kg/injection, schedule: Q01DX001 (ip), vehicle: saline 102 % of control
